Assay results as given in ChEMBL document CHEMBL3784961, “Kinetics and metabolism of paracetamol and phenacetin” (Br J Clin Pharmacol, 1980).

Legend:
[1] = Drug excretion in human urine assessed as unchanged parent compound level; type: ADME; conditions: read-out: Drug excretion
[2] = Half life in human; type: ADME, organism-based; conditions: in vivo
[3] = system: Homo sapiens; assay: Renal clearance in healthy human assessed as paracetamol sulfate level at 20 mg/kg; type: ADME, organism-based, Kidney; conditions: in vivo
[4] = system: Homo sapiens; assay: Drug recovery in poisoned human patient (15 patients) without liver damage receiving cysteamine treatment assessed as glucuronide conjugate level at 20 mg/kg, po; type: ADME, organism-based; conditions: in vivo
[5] = system: Homo sapiens; assay: Mean drug recovery in poisoned human patient (9 patients) without liver damage receiving supportive treatment at 20 mg/kg, po; type: ADME, organism-based; conditions: in vivo
[6] = Apparent volume of distribution in human; conditions: in vivo
[7] = system: Homo sapiens; assay: Drug recovery in poisoned human patient (8 patients) with severe liver damage receiving supportive treatment assessed as glucuronide conjugate level at 20 mg/kg, po; type: ADME, organism-based; conditions: in vivo
[8] = system: Homo sapiens; assay: Drug recovery in healthy human subjects (8 subjects) assessed as mercapturate plus cysteine conjugate level at 20 mg/kg, po; type: ADME, organism-based; conditions: in vivo
[9] = system: Homo sapiens; assay: Distribution half life in healthy adult male human subject at 12 mg/kg, iv; type: ADME, organism-based; conditions: in vivo
[10] = system: Homo sapiens; assay: Mean drug recovery in poisoned human patient (23 patients) without liver damage receiving NAC treatment at 20 mg/kg, po; type: ADME, organism-based; conditions: in vivo
[11] = Systemic availability in human; type: ADME, organism-based; conditions: in vivo
[12] = system: Homo sapiens; assay: Mean drug recovery in poisoned human patient (3 patients) with severe liver damage receiving methionine treatment at 20 mg/kg, po; type: ADME, organism-based; conditions: in vivo
[13] = system: Homo sapiens; assay: Mean drug recovery in poisoned human patient (15 patients) without liver damage receiving cysteamine treatment at 20 mg/kg, po; type: ADME, organism-based; conditions: in vivo
[14] = system: Homo sapiens; assay: Drug recovery in healthy human subjects (8 subjects) assessed as glucuronide conjugate level at 20 mg/kg, po; type: ADME, organism-based; conditions: in vivo
[15] = system: Homo sapiens; assay: Drug recovery in poisoned human patient (23 patients) without liver damage receiving NAC treatment assessed as glucuronide conjugate level at 20 mg/kg, po; type: ADME, organism-based; conditions: in vivo
[16] = system: Homo sapiens; assay: Mean drug recovery in poisoned human patient (8 patients) with severe liver damage receiving NAC treatment at 20 mg/kg, po; type: ADME, organism-based; conditions: in vivo
[17] = system: Homo sapiens; assay: Mean drug recovery in poisoned human patient (8 patients) with severe liver damage receiving supportive treatment at 20 mg/kg, po; type: ADME, organism-based; conditions: in vivo
[18] = Drug excretion in urine of healthy young adult human assessed as glucuronide conjugate level after 24 hrs; type: ADME; conditions: in vivo
[19] = system: Homo sapiens; assay: Drug recovery in healthy human subjects (8 subjects) assessed as sulphate conjugate level at 20 mg/kg, po; type: ADME, organism-based; conditions: in vivo
[20] = system: Homo sapiens; assay: Drug recovery in poisoned human patient (3 patients) with severe liver damage receiving methionine treatment assessed as mercapturate plus cysteine conjugate level at 20 mg/kg, po; type: ADME, organism-based; conditions: in vivo
[21] = system: Homo sapiens; assay: Drug recovery in poisoned human patient (8 patients) with severe liver damage receiving NAC treatment assessed as sulphate conjugate level at 20 mg/kg, po; type: ADME, organism-based; conditions: in vivo
[22] = system: Homo sapiens; assay: Drug recovery in poisoned human patient (9 patients) without liver damage receiving supportive treatment assessed as mercapturate plus cysteine conjugate level at 20 mg/kg, po; type: ADME, organism-based; conditions: in vivo
[23] = system: Homo sapiens; assay: Drug recovery in poisoned human patient (3 patients) with severe liver damage receiving methionine treatment assessed as glucuronide conjugate level at 20 mg/kg, po; type: ADME, organism-based; conditions: in vivo
[24] = system: Homo sapiens; assay: Drug recovery in poisoned human patient (9 patients) without liver damage receiving supportive treatment assessed as glucuronide conjugate level at 20 mg/kg, po; type: ADME, organism-based; conditions: in vivo
[25] = Half life in healthy young adult human; type: ADME, organism-based; conditions: in vivo
[26] = Volume of distribution in 70 kg adult human at 12 mg/kg, iv infused over 2 mins; conditions: in vivo
[27] = Half life in elderly human; type: ADME, organism-based; conditions: in vivo
[28] = system: Homo sapiens; assay: Drug recovery in poisoned human patient (8 patients) with severe liver damage receiving NAC treatment assessed as glucuronide conjugate level at 20 mg/kg, po; type: ADME, organism-based; conditions: in vivo
[29] = system: Homo sapiens; assay: Drug recovery in poisoned human patient (8 patients) with severe liver damage receiving supportive treatment assessed as mercapturate plus cysteine conjugate level at 20 mg/kg, po; type: ADME, organism-based; conditions: in vivo
[30] = system: Homo sapiens; assay: Drug recovery in poisoned human patient (23 patients) without liver damage receiving NAC treatment assessed as sulphate conjugate level at 20 mg/kg, po; type: ADME, organism-based; conditions: in vivo
[31] = system: Homo sapiens; assay: Drug recovery in poisoned human patient (8 patients) without liver damage receiving methionine treatment assessed as sulphate conjugate level at 20 mg/kg, po; type: ADME, organism-based; conditions: in vivo
[32] = Volume of distribution at central compartment in healthy adult male human subject at 12 mg/kg, iv; conditions: in vivo
[33] = Drug excretion in urine of healthy young adult human assessed as sulphate conjugate level after 24 hrs; type: ADME; conditions: in vivo
[34] = Drug excretion in urine of healthy young adult human assessed as unchanged parent drug level after 24 hrs; type: ADME; conditions: read-out: Drug excretion
[35] = system: Homo sapiens; assay: Drug recovery in poisoned human patient (8 patients) with severe liver damage receiving NAC treatment assessed as mercapturate plus cysteine conjugate level at 20 mg/kg, po; type: ADME, organism-based; conditions: in vivo
[36] = system: Homo sapiens; assay: Drug recovery in poisoned human patient (8 patients) with severe liver damage receiving supportive treatment assessed as sulphate conjugate level at 20 mg/kg, po; type: ADME, organism-based; conditions: in vivo
[37] = system: Homo sapiens; assay: Drug recovery in poisoned human patient (23 patients) without liver damage receiving NAC treatment assessed as mercapturate plus cysteine conjugate level at 20 mg/kg, po; type: ADME, organism-based; conditions: in vivo
[38] = Drug excretion in urine of human at 20 mg/kg assessed as mercapturic conjugate level after 24 hrs; type: ADME, organism-based; conditions: in vivo
[39] = system: Homo sapiens; assay: Drug recovery in poisoned human patient (8 patients) without liver damage receiving methionine treatment assessed as glucuronide conjugate level at 20 mg/kg, po; type: ADME, organism-based; conditions: in vivo
[40] = system: Homo sapiens; assay: Mean drug recovery in poisoned human patient (8 patients) without liver damage receiving methionine treatment at 20 mg/kg, po; type: ADME, organism-based; conditions: in vivo
[41] = Elimination half life in healthy adult male human subject at 12 mg/kg, iv; type: ADME, organism-based; conditions: in vivo, read-out: beta t1/2 (converted)
[42] = system: Homo sapiens; assay: Drug recovery in poisoned human patient (15 patients) without liver damage receiving cysteamine treatment assessed as mercapturate plus cysteine conjugate level at 20 mg/kg, po; type: ADME, organism-based; conditions: in vivo
[43] = Volume of distribution at central and peripheral compartment in healthy adult male human subject at 12 mg/kg, iv; conditions: in vivo
[44] = system: Homo sapiens; assay: Drug recovery in poisoned human patient (8 patients) without liver damage receiving methionine treatment assessed as mercapturate plus cysteine conjugate level at 20 mg/kg, po; type: ADME, organism-based; conditions: in vivo
[45] = system: Homo sapiens; assay: Drug recovery in poisoned human patient (9 patients) without liver damage receiving supportive treatment assessed as sulphate conjugate level at 20 mg/kg, po; type: ADME, organism-based; conditions: in vivo
[46] = Elimination half life in healthy adult male human subject at 12 mg/kg, po; type: ADME, organism-based; conditions: in vivo, read-out: beta t1/2 (converted)
[47] = system: Homo sapiens; assay: Drug recovery in poisoned human patient (3 patients) with severe liver damage receiving methionine treatment assessed as sulphate conjugate level at 20 mg/kg, po; type: ADME, organism-based; conditions: in vivo
[48] = system: Homo sapiens; assay: Drug recovery in poisoned human patient (15 patients) without liver damage receiving cysteamine treatment assessed as sulphate conjugate level at 20 mg/kg, po; type: ADME, organism-based; conditions: in vivo
[49] = Systemic availability in healthy adult male human subject at 12 mg/kg, po; type: ADME, organism-based; conditions: in vivo
[50] = system: Homo sapiens; assay: Renal clearance in healthy human assessed as paracetamol glucuronide level at 20 mg/kg; type: ADME, organism-based, Kidney; conditions: in vivo

CCOc1ccc(NC(C)=O)cc1 [PHENACETIN]
dose excreted [1]: < 0.5%
half-life [2]: 1 h

CC(=O)Nc1ccc(OS(=O)(=O)O)cc1
CL [3]: 166 mL/min

CC(=O)Nc1ccc(O)cc1 [ACETAMINOPHEN]
Drug recovery [4]: 72.4%
Drug recovery [5]: 10.3 g
Vd [6]: 0.9 L/kg
Drug recovery [7]: 66.5%
Drug recovery [8]: 8%
alphat1/2 [9]: 0.13 h
Drug recovery [10]: 13.4 g
bioavailability [11]: 75%
Drug recovery [12]: 13.7 g
Drug recovery [13]: 14.5 g
Drug recovery [14]: 54.7%
Drug recovery [15]: 63.6%
Drug recovery [16]: 13 g
Drug recovery [17]: 11.8 g
Drug excretion [18]: 55%
Drug recovery [19]: 32.3%
Drug recovery [20]: 13.8%
Drug recovery [21]: 13.3%
Drug recovery [22]: 6.9%
Drug recovery [23]: 68.9%
Drug recovery [24]: 75.3%
half-life [25]: 2 h
Vd at 2 min [26]: 65 L
half-life [27]: 2.17 h
Drug recovery [28]: 60.9%
Drug recovery [29]: 15.2%
dose excreted [1]: 2%
Drug recovery [30]: 14.5%
Drug recovery [31]: 10.1%
Vd [32]: 0.509 L/kg
Drug excretion [33]: 30%
dose excreted at 24 h [34]: 4%
Drug recovery [35]: 16.5%
Drug recovery [36]: 9.7%
Drug recovery [37]: 10.6%
Drug excretion [38]: 4%
Drug recovery [39]: 73.9%
Drug recovery [40]: 14.5 g
half-life [41]: 1.98 h
Drug recovery [42]: 6.4%
Vd [43]: 0.897 L/kg
Drug recovery [44]: 8.1%
Drug recovery [45]: 9.3%
half-life [46]: 1.97 h
Drug recovery [47]: 9.1%
Drug recovery [48]: 11.9%
bioavailability [49]: 76%

CC(=O)Nc1ccc(O[C@@H]2O[C@H](C(=O)O)[C@@H](O)[C@H](O)[C@H]2O)cc1 [ACETAMINOPHEN GLUCURONIDE]
CL [50]: 130 mL/min
